Here are results for 5 compounds from paper PMC12973313 (Chemical Science, 2026).

Data set [1] in a line: 1H NMR dilution study, self-association constants (Bindfit v0.5). It counts as physicochemical. The conditions noted are these: 298 K; for Kdim, CoEK model / Ke, CoEK model / Ke, EK model / ρ, CoEK model: DMSO-d6/0.5 % H2O; for Kdim / Kdim (M^-1): equal K/dimerization model, DMSO-d6 0.5% H2O. How it is done:
This enables the quantification of parameters such as SSA anion dimerization constant which we have shown to correlate with critical aggregation concentration (CAC) values obtained from aqueous solutions of that same SSA.[30]
Figure S40 – Graph illustrating the 1H NMR down-field change in chemical shift of urea NH
resonances with increasing concentration of 9 in DMSO-d6/0.5 % H2O (298 K).
Self-association constant calculation: values were calculated from data gathered from both
NH’s and fitted to the Cooperative Equal K (CoEK) and Equal K/ dimerization binding models.
Equal K/Dimerization model:
Table S8- The self-association constants (Ke and Kdim) calculated for 3, 5, 7 and 9 in DMSO-d6/
0.5 % H2O solution at 298 K. Constants were obtained for the EK and CoEK models by fitting
1H NMR self-association data to Bindfit v0.5.
EK model (M-1) CoEK model (M-1)
Compound Ke Error Kdim Error Ke Error Kdim Error ⍴ Error
(± %) (± %) (± %) (± %) (± %)
(§1) (1 picture or pasted object on this page, not shown here)

Data set [2] is described as follows: Quantitative 1H NMR, D2O 5% EtOH (self-association). The format is physicochemical. The following applies: 5.56 mM, 298 K, proportion NMR silent. The text has this:
However, when supplied as a 1 : 1 enantiomeric mixture, although the trend in increased incorporation of 7 + 9 over 3 + 5 into the higher order aggregate structure was retained from previous observations in polar organic solvents, the total proportion of SSA incorporated into these higher order structures was approximately 20% lower (from ≈ 50% to ≈ 30%) for the 1 : 1 enantiomeric mixture of 3 + 5 over the homogenous solution of those same SSAs.

The next data set relates to S. aureus ATCC 9144. The data set can be described thus: MIC assay. It counts as cell-based, Staphylococcus aureus. How it is done:
(§2) Next generation SSAs 3, 5, 7, and 9 were specifically designed to increase the activity of SSAs against both drug susceptible and resistant S. aureus and ovarian cancer cells. […] These strains include: (i) USA300, a common clinically relevant, methicillin resistant strain;[47] […]
(§3) Section S3: Biological methods […]
(§4) Preparation of bacterial plates : Sterile TSB agar plates were streaked using the desired […]
(§5) Preparation of inoculum: An initial culture was made up by inoculating TSB (5 mL) with 3 single colonies of the desired bacteria under sterile conditions and incubated at 37 °C overnight. The optical density at 600 nm (OD 600) was adjusted using sterile distilled H 2O (dH2O) to equal ~1 x 10^6 bacteria/mL.
(§6) Preparation of 96 -well microplate : A solution of each compound in H2O/5 % EtOH was made […]
(§7) The compound solution (200 […]
(§8) µL) was added to and diluted 50:50 down the plate. The bacterial suspension (100 µL) was dispensed into each well under sterile conditions. […]

The test system of another data set is S. aureus NCTC 13616. The experiment in a line: MIC assay. It counts as cell-based, Staphylococcus aureus. The procedure: as §2, §3, §4, §5, §6, §7, §8
Data set [3] in a line: Cl-/NO3- antiport assay, chloride ISE. It counts as biochemical. The conditions noted are these: pH 7.2; for EC50 Cl-/NO3- antiport: 50% chloride efflux after 270 s; for n (Hill coefficient): Hill analysis.
Text: Although evidence supports the hypothesis that SSAs are able to act as selective phospholipid membrane coordination and/or disruption agents,[39] to date we have minimal evidence that verifies the role ion transport events may play in the SSA mechanism of biological activity, or the types of transmembrane SSA structures which may be involved in facilitating these events, such as ion channels or membrane pores. Therefore, to confirm the role ion transport may play in the biological activity of SSAs, we explored the ability of SSAs 1, 3, 5, 7, and 9 to mediate ion transport in phospholipid vesicles (Section S17). We initially performed a Cl^−/NO3^− antiport assay.[52] Large unilamellar vesicles composed of 1-palmitoyl-2-oleoyl-sn-glycero-3-phosphocholine (POPC) were prepared containing NaCl (ionic strength = 500 mM) buffered to pH 7.2 with sodium phosphate salts. The vesicles were suspended in NaNO3 (ionic strength = 500 mM) at pH 7.2 (Fig. 4a). On addition of the SSA as a 5 mM DMSO stock solution (which was maintained throughout these experiments to minimise any variation in aggregation state induced by changes in concentration), any resulting chloride efflux was detected using a chloride ion selective electrode (ISE). All of these molecules but compound 1 (Section S17) mediated a modest amount of chloride efflux when added at 10 mol% w.r.t. lipid (Fig. 4b and c)which is surprising given the negative charge of the SSA anion. […] We were unable to observe significant transport activity when these compounds were added as a stock solution dissolved in water (5 mM). […]
Section S3: Biological methods
Preparation of vesicles: A stock solution of 1-palmitoyl-2-oleoyl-sn-glycero-3-phosphocholine (POPC) was prepared by dissolving 1 g of POPC in 35 mL de-acidified CHCl3. The CHCl3 was passed through a column of basic alumina before use. This solution was stored at -20 °C when […]
A lipid film of POPC was prepared by adding 1–4 mL of the above stock solution into a pre-weighed falcon tube and gently removing the CHCl3 under a stream of nitrogen. The lipid film was dried under vacuum overnight. The lipid film was re-hydrated by vortexing with the desired internal buffer solution, then subjected to 9 freeze-thaw cycles. Typically, the lipids were not thawed on the last cycle and were stored at -20 °C for use at a later date.
The lipid was thawed to room temperature and allowed to stand for 30 mins, then extruded 27 times through a 200 nm polycarbonate membrane. The resulting unilamellar vesicles were dialysed against the desired external buffer solution for a minimum of 2 hours.
Transport experiments protocol: The vesicles prepared as described above were diluted to a known volume of 5 mL using the desired external buffer solution. This solution was further diluted into individual 5 mL samples for testing at a final lipid concentration of 1 mM. The transporter was added to the vesicles from a stock solution in DMSO (5 mM) after 30 s in order to initiate the transport and any resulting chloride efflux was monitored using a chloride selective electrode (ISE – Cole Parmer). At the end of the experiment, the vesicles were lysed by the addition of 40 µL Triton-X 100 (10 wt% in H2O). The final electrode reading was taken 2 mins later and used to calibrate 100% chloride efflux. Each experiment was performed 3 […]
Section S17: Ion transport studies
Cl-/NO3- antiport Hill plots – pH 7.2
Internal buffer: 500 mM NaCl buffered to pH 7.2 with 5 mM sodium phosphate salts.
External buffer: 500 mM NaNO3 buffered to pH 7.2 with 5 mM sodium phosphate salts.
Figure S134 - Transport data for the Cl-/NO3- antiport Hill plot experiment with compound 1.
Full Hill analysis was not performed due to the low observed activity of this compound.
as §1

Where [4] appears, read: Staphylococcus aureus, ATCC9144, 15 h, total molecular concentration, after 900 min, read-out: MIC ATCC 9144.
Setting [5] is: Staphylococcus aureus, ATCC9144, lowest concentration with no visible growth, read-out: MIC (mM) S. aureus 9144.
The mark [6] stands for this setting: Staphylococcus aureus, NCTC13616, 15 h, total molecular concentration, after 900 min, read-out: MIC NCTC 13616.
Where [7] appears, read: Staphylococcus aureus, NCTC13616, lowest concentration with no visible growth, read-out: MIC (mM) S. aureus 13616.

Structures are written as SMILES. Values after ≈ are worked out from the molar mass of the structure shown. Like-named read-outs stand apart in the source and are kept apart here.

Turning to `O=C(Nc1ccc(C(F)(F)F)cc1)N[C@H](Cc1ccccc1)C(=O)O` [SSA 9], in data set [1], the “Kdim, CoEK model” value was 8.92 M⁻¹; the “Ke, CoEK model” value was 17.84 M⁻¹; the “Ke, EK model” value is 45.90 M⁻¹; the “ρ, CoEK model” value is on record as 2.62. In addition, in data set [1], the “Kdim” value was determined as 22.95 M⁻¹ and the “Kdim (M^-1)” value is reported as 23 (±2.5%) M^−1. Also, in data set [2], the “Q NMR (%) SSA anion” value was found to be 58% and the “Q NMR (%) SSA cation” value is listed as 53%. In the data set on S. aureus ATCC 9144 (setting [4]), the MIC turned out to be 0.174 mM (≈ 61.3 µg/mL). The MIC in the data set on S. aureus ATCC 9144 (setting [5]) is 0.174 mM (≈ 61.3 µg/mL). Further, in the data set with S. aureus NCTC 13616 (setting [6]), the MIC amounted to 0.087 mM (≈ 30.7 µg/mL). Further, in the data set on S. aureus NCTC 13616 (setting [7]), the MIC worked out at 0.087 mM (≈ 30.7 µg/mL). In addition, in data set [3], the “EC50 Cl-/NO3- antiport” value is on record as greater than 15 mol% w.r.t. lipid and the “n (Hill coefficient)” value was found to be 1.3.

For `O=C(O)CNC(=O)Nc1ccc(C(F)(F)F)cc1` [SSA 1], the MIC in the data set with S. aureus ATCC 9144 (setting [4]) was 1.39 mM (≈ 364 µg/mL); in the data set with S. aureus ATCC 9144 (setting [5]) it was 1.39 mM (≈ 364 µg/mL); with S. aureus NCTC 13616 (setting [6]) it was greater than 2.78 mM; in the data set on S. aureus NCTC 13616 (setting [7]), greater than 2.78 mM.

`CC(C)CC(NC(=O)Nc1ccc(C(F)(F)F)cc1)C(=O)O` (stereo not drawn) [SSA 5]: in data set [1] (listed as 5), the “Kdim, CoEK model” value is 175.90 M⁻¹; the “Ke, CoEK model” value came to 351.80 M⁻¹; the “Ke, EK model” value was 180.55 M⁻¹; the “ρ, CoEK model” value was found to be 3.41. In addition, in data set [1] (listed as 5), the “Kdim” value worked out at 90.27 M⁻¹ and the “Kdim (M^-1)” value is reported as 90 (±3.2%) M^−1. Moreover, in data set [2] (listed as 5), the “Q NMR (%) SSA anion” value is given as 52% and the “Q NMR (%) SSA cation” value is given as 48%. In the data set on S. aureus ATCC 9144 (lowest concentration with no visible growth, listed as 5), the “MIC (mM) S. aureus 9144” value was determined as 0.174 mM (≈ 55.4 µg/mL). Also, in the data set with S. aureus ATCC 9144 (total molecular concentration, after 900 min, listed as 5, read-out: MIC ATCC 9144), the MIC amounted to 0.174 mM (≈ 55.4 µg/mL). Also, the “MIC (mM) S. aureus 13616” value against S. aureus NCTC 13616 (lowest concentration with no visible growth) worked out at 0.087 mM (≈ 27.7 µg/mL). In addition, the MIC with S. aureus NCTC 13616 (total molecular concentration, after 900 min, read-out: MIC NCTC 13616) came to 0.087 mM (≈ 27.7 µg/mL). For the same compound, the “EC50 Cl-/NO3- antiport” value in data set [3] is greater than 15 mol% w.r.t. lipid. Further, the “n (Hill coefficient)” value in data set [3] (listed as 5) was found to be 1.7.

As for `O=C(Nc1ccc(C(F)(F)F)cc1)N[C@@H](Cc1ccccc1)C(=O)O` [SSA 7], in data set [1], the “Kdim, CoEK model” value was 10.58 M⁻¹; the “Ke, CoEK model” value turned out to be 21.17 M⁻¹; the “Ke, EK model” value worked out at 55.52 M⁻¹; the “ρ, CoEK model” value amounted to 2.86. In data set [1], the “Kdim” value was 27.76 M⁻¹ and the “Kdim (M^-1)” value is given as 28 (±2.1%) M^−1. In data set [2], the “Q NMR (%) SSA anion” value is 51% and the “Q NMR (%) SSA cation” value was determined as 48%. Further, the minimum inhibitory concentration (MIC) in the data set on S. aureus ATCC 9144 (setting [4]) is 0.087 mM (≈ 30.7 µg/mL). The MIC in the data set on S. aureus ATCC 9144 (setting [5]) came out at 0.087 mM (≈ 30.7 µg/mL). For the same compound, in the data set with S. aureus NCTC 13616 (setting [6]), the MIC worked out at 0.087 mM (≈ 30.7 µg/mL). In the data set on S. aureus NCTC 13616 (setting [7]), the MIC came out at 0.087 mM (≈ 30.7 µg/mL). Besides, in data set [3], the “EC50 Cl-/NO3- antiport” value is recorded as greater than 15 mol% w.r.t. lipid and the “n (Hill coefficient)” value came to 1.4.

With `CC(C)CC(NC(=O)Nc1ccc(C(F)(F)F)cc1)C(=O)O` (stereo not drawn) [SSA 3], in data set [1] (listed as 3), the “Kdim, CoEK model” value amounted to 280.45 M⁻¹; the “Ke, CoEK model” value came out at 560.90 M⁻¹; the “Ke, EK model” value was 242.72 M⁻¹; the “ρ, CoEK model” value was found to be 2.29. Moreover, in data set [1] (listed as 3), the “Kdim” value came to 121.36 M⁻¹ and the “Kdim (M^-1)” value was 121 (±1.9%) M^−1. In addition, in data set [2] (listed as 3), the “Q NMR (%) SSA anion” value is reported as 50% and the “Q NMR (%) SSA cation” value is reported as 44%. For the same compound, the MIC in the data set on S. aureus ATCC 9144 (setting [4]) is 0.087 mM (≈ 27.7 µg/mL). In addition, in the data set with S. aureus ATCC 9144 (setting [5]), the MIC is 0.087 mM (≈ 27.7 µg/mL). Also, in the data set on S. aureus NCTC 13616 (setting [6]), the MIC came out at 0.087 mM (≈ 27.7 µg/mL). For the same compound, the MIC in the data set with S. aureus NCTC 13616 (setting [7]) amounted to 0.087 mM (≈ 27.7 µg/mL). Besides, the “EC50 Cl-/NO3- antiport” value in data set [3] is greater than 15 mol% w.r.t. lipid. In addition, in data set [3] (listed as 3), the “n (Hill coefficient)” value stood at 1.4.

The MIC is the least concentration at which growth counts as inhibited.
